The values below come from patent publication EP4570245A1, “COMBINED AGENTS WITH SYNERGISTIC EFFECT AGAINST GLIOMAS” (Eberhard Karls Universität Tübingen Medizinische Fakultät, priority 2023, dated 2025).

Experiment [1] relates to LN18 and T98G glioma cell lines. In words: Clonogenic survival assay of shRNA knockdown cells under CCNU treatment. It counts as cell-based. As to the method: The inventors seeded the cells one day prior to treatment. The inventors then treated the cells with the specified concentrations in serum-free medium for 24 hours. Afterward, they changed the medium back to one containing FCS and incubated the cells for a period ranging from 14 to 21 days. The inventors stained the colonies using 0.5% w/v crystal violet and counted them. Measurements were normalized to the respective vehicle control wells.
Based on the CRISPR/Cas9 screen result a loss of the Fanconi anemia DNA repair pathway should increase the effect of CCNU treatment. Therefore, the inventors induced an shRNA knockdown in LN18 and T98G glioma cell lines for FANCA or FANCD2. These knockdown cell lines were treated in clonogenic survival assays with CCNU in comparison to a control cell line transduced with a vector coding for an shRNA against Luciferase (Figure 2).

For experiment [2], the target named is T1, RMI (RecQ-mediated genome instability protein) core complex/MM2 interaction (Homo sapiens, UniProt Q96E14+Q9H9A7).
T1 sequence (Q9H9A7 473-625 limits assumed): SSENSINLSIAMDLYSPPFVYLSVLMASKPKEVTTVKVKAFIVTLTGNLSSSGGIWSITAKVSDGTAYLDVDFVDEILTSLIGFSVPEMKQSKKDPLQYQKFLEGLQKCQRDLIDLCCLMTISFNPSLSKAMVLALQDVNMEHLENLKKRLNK
T1 sequence (Q96E14 1-147): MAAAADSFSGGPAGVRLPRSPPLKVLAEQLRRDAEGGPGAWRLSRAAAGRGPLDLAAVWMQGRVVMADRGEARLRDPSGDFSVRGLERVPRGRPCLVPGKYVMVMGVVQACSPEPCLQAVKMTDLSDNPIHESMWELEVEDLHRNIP
Conditions: inhibitor of RMI core complex/MM2 interaction; MM2 is the binding site of RMI complex on FANCM; cited from earlier work.

Regarding `O=NN(CCCl)C(=O)NC1CCCCC1` [CCNU, lomustine], the “sensitivity to CCNU treatment” value in experiment [1] (FANCA shRNA knockdown cell lines compared to the luciferase shRNA control) and in experiment [1] (FANCD2 shRNA knockdown cell lines compared to the luciferase shRNA control) was “more sensitive” in each case.

Broadly, the IC50 is the point on the concentration scale where inhibition reaches its midpoint. For the molecule `CCOC(=O)N1CCN(C(c2ccccn2)c2c(-c3ccccc3)n(O)c3ccccc23)CC1` (stereo not drawn) [PIP-199], in experiment [2], the IC50 was 36 µM.
